Measurements from paper PMC9995496, “A screen for MeCP2-TBL1 interaction inhibitors using a luminescence-based assay” (Scientific Reports, 2023).
Where a name gives a salt, the structure may show the parent alone. Read-outs that look alike come from different tables or passages of the source. Numbered stars: 1 amine (or outer) side, 2 acyl side, 3 side chain; on linkers, the order of the positions; unused ones are H or OH. Bridge positions count the residues as written; N and C are the ends. Square brackets hold non-standard residues; d marks the D form. Peptide text beside a SMILES is read from it. I, II: the chains in the order shown. * marks the point of attachment. Actinocin(9to1) = Cc1c2oc3c(C)ccc(C(=O)[*:1])c3nc-2c(C(=O)[*:2])c(N)c1=O; NMeV = CN[C@H](C(=O)O)C(C)C; Cbz = O=C(OCc1ccccc1)*; Sar = CNCC(=O)O

Test system: PRKACA-PRKAR2A interaction (SmBiT-PRKACA / LgBiT-PRKAR2A), protein kinase A
Parameters: NanoLuc complementation counter-screen in cell extract, PRKACA with PRKAR2A, loss of luminescence, detects NanoLuc interference
Settings: 0.5 h, 20 µM, inhibitor
[1] = counter-screen for NanoLuc interference
[2] = counter-screen for NanoLuc interference, Inh (PKA)

| Inh (PKA) [1] | SMILES | further results |
| --- | --- | --- |
| 1.652% | CN(NC(=O)CC(=O)NN(C)C(=S)c1ccccc1)C(=S)c1ccccc1 [UM0141826:01, Elesclomol (STA-4783)] | – |
| 36.57% | N#Cc1ccc(COC[C@H]2O[C@@H](n3c(NCc4ccc(Cl)c(Cl)c4)nc4c(N)ncnc43)[C@H](O)[C@@H]2O)cc1 [UM0141827:01, VER 155008] | – |
| 5.956% | CC[C@@H](C)Nc1cc(C(=O)N[C@H]2C[C@H]3CC[C@@H](C2)N3c2ccc(C(=O)C3CC3)cn2)c(C)cc1C(N)=O [UM0141828:01, XL-888] | – |
| – | Nc1nc2[nH]cc(CCc3ccc(C(=O)N[C@@H](CCC(=O)O)C(=O)O)cc3)c2c(=O)[nH]1 [UM0141829:01, Pemetrexed] | Inh (PKA) [2]: -0.0222% |
| – | CC(=O)O[C@@]12CO[C@@H]1C[C@H](O)[C@@]1(C)C(=O)[C@H](O)C3=C(C)[C@@H](OC(=O)[C@H](O)[C@@H](NC(=O)OC(C)(C)C)c4ccccc4)C[C@@](O)([C@@H](OC(=O)c4ccccc4)[C@H]21)C3(C)C [UM0141830:01, Docetaxel] | Inh (PKA) [2]: 0.7441% |
| 0.06739% | CO[C@@H]1[C@H](OC(=O)/C=C/C=C/C=C/C=C/C(=O)O)CC[C@]2(CO2)[C@H]1[C@@]1(C)O[C@@H]1CC=C(C)C [UM0141832:01, Fumagillin] | – |
| 3.195% | CC(C)[C@H](NC(=O)OCc1ccccc1)C(=O)N[C@H](C=O)Cc1ccccc1 [UM0141833:01, MDL 28170] (Cbz-Val-Phe-aldehyde) | – |
| -0.6384% | N#Cc1ccc(NCCNCC(=O)N2CCC[C@H]2C#N)nc1 [UM0141834:01, NVP DPP 728 dihydrochloride] | – |
| 18.44% | COc1ccc(CCc2nc3cc(-c4c(C)noc4C)ccc3n2C[C@H](C)N2CCOCC2)cc1Cl [UM0141843:01, SGC-CBP30] | – |
| 2.048% | CC(=O)SCC(=O)c1ccc(NS(=O)(=O)c2ccc(OCCCN(C)C)cc2)nc1 [UM0141844:01, KD 5170] | – |
| -1.396% | Cc1cc(C)cc(C(=O)NOCCCCCC(=O)NO)c1 [UM0141845:01, LMK 235] | – |
| 6.356% | Cc1ccc(NC(=O)CCCCCC(=O)Nc2ccccc2N)cc1 [UM0141846:01, TC-H 106] | – |
| 3.563% | COc1cc2c(NC3CCN(C)CC3)nc(N3CCCN(C)CC3)nc2cc1OCCCN(C)C [UM0141847:01, UNC 0224] | – |
| 19.45% | O=S(=O)(NCCSSCCNS(=O)(=O)c1cc(Cl)ccc1Cl)c1cc(Cl)ccc1Cl [UM0141849:01, KC7F2] | – |
| – | CC(C)(O)/C=C/C(=O)[C@](C)(O)[C@H]1[C@H](O)C[C@@]2(C)[C@@H]3CC=C4[C@@H](C=C(O)C(=O)C4(C)C)[C@]3(C)C(=O)C[C@]12C [UM0141852:01, Cucurbitacin I] | Inh (PKA): -0.1004% |
| 8.312% | C=CC(=O)c1ccc2ccccc2c1 [UM0141853:01, ZM 449829] | – |
| 47.09% | N#Cc1c(-c2ccccc2)cc(-c2cc(Br)ccc2O)[nH]c1=O [UM0141854:01, TCS PIM-1 1] | – |
| 17.99% | COc1ccc(-n2c(SCCCN3C(=O)c4cccc5cccc(c45)C3=O)nnc2-c2ccncc2)cc1 [UM0141857:01, WIKI4] | – |
| 56.23% | O=C(/C=C/c1ccccc1)NC(NC(=S)Nc1ccc(Cl)cc1)C(Cl)(Cl)Cl (centres unmarked) [UM0141858:01, Sal 003] | – |
| 48.34% | O=S(=O)(O)c1ccc2cc(N=Nc3cc(S(=O)(=O)O)c4cccnc4c3O)ccc2c1 [UM0141859:01, NSC 87877] | – |
| 6.685% | OC[C@H]1O[C@@H](c2ccc(Cl)c(Cc3ccc(O[C@H]4CCOC4)cc3)c2)[C@H](O)[C@@H](O)[C@@H]1O [UM0141860:01, Empagliflozin (BI 10773)] | – |
| 38.44% | CC1(C)CNc2cc(NC(=O)c3cccnc3NCc3ccncc3)ccc21 [UM0141862:01, Motesanib Diphosphate (AMG-706)] | – |
| 12.69% | CC(C)(C)c1cc(C(C)(C)C)c(NC(=O)c2c[nH]c3ccccc3c2=O)cc1O [UM0141863:01, Ivacaftor (VX-770)] | – |
| 3.817% | OCCn1cc(-c2ccc3c(c2)CC/C3=N\O)c(-c2ccncc2)n1 [UM0141866:01, GDC-0879] | – |
| 29.62% | CCn1c(-c2nonc2N)nc2c(C#CC(C)(C)O)ncc(OC[C@H]3CCCNC3)c21 [UM0141867:01, GSK690693] | – |
| 1.476% | COc1ccc(-c2ccc3c(N4CCOCC4)nc(N4C[C@@H](C)O[C@@H](C)C4)nc3n2)cc1CO [UM0141868:01, KU-0063794] | – |
| 8.714% | Cn1cc(-c2ccc3nnc(C(F)(F)c4ccc5ncccc5c4)n3n2)cn1 [UM0141869:01, JNJ-38877605] | – |
| 1.023% | OCCn1cc(-c2cnc3nnn(Cc4ccc5ncccc5c4)c3n2)cn1 [UM0141870:01, PF-04217903] | – |

| Inh (PKA) [1] | SMILES | further results |
| --- | --- | --- |
| 0.8933% | CCc1c2c(nc3ccc(OC(=O)N4CCC(N5CCCCC5)CC4)cc13)-c1cc3c(c(=O)n1C2)COC(=O)[C@]3(O)CC [UM0141872:01, Irinotecan] | – |
| 0.3149% | O=C1NC(=O)/C(=C\c2ccc3nccnc3c2)S1 [UM0141873:01, AS-605240] | – |
| 72.93% | COC(=O)[C@H](c1ccccc1Cl)N1CCc2sccc2C1 [UM0141874:01, Clopidogrel] | – |
| -0.0985% | C[C@H](Cn1cnc2c(N)ncnc21)OCP(=O)(O)O [UM0141875:01, Tenofovir] | – |
| -0.1627% | O=P(O)(O)C(O)(Cc1cccnc1)P(=O)(O)O [UM0141876:01, Risedronate Sodium] | – |
| 0.457% | CNS(=O)(=O)Cc1ccc2[nH]cc(CCN(C)C)c2c1 [UM0141877:01, Sumatriptan Succinate] | – |
| 5.467% | CCOc1cc(CC(=O)N[C@@H](CC(C)C)c2ccccc2N2CCCCC2)ccc1C(=O)O [UM0141879:01, Repaglinide] | – |
| 1.366% | COc1c(N2C[C@@H]3CCCN[C@@H]3C2)c(F)cc2c(=O)c(C(=O)O)cn(C3CC3)c12 [UM0141881:01, Moxifloxacin HCl] | – |
| -0.1027% | COc1ccc(C(CN(C)C)C2(O)CCCCC2)cc1 (centres unmarked) [UM0141884:01, Venlafaxine] | – |
| 2.302% | CC(c1cc2ccccc2s1)N(O)C(N)=O (centres unmarked) [UM0141885:01, Zileuton] | – |
| 1.343% | c1cnc2cc3c(cc2n1)[C@@H]1CNC[C@H]3C1 [UM0141886:01, Varenicline Tartrate] | – |
| 4.215% | COc1ccc(S(=O)(=O)N(C(C)=O)c2ccccc2/C=C/c2cc[n+]([O-])cc2)cc1 [UM0141887:01, HMN-214] | – |
| 6.642% | CC(=O)Nc1nc(C)c(-c2ccc(Cl)c(S(=O)(=O)NCCO)c2)s1 [UM0141889:01, PIK-93] | – |
| 7.14% | CCN1CCN(Cc2ccc(-c3cc4c(N[C@H](C)c5ccccc5)ncnc4[nH]3)cc2)CC1 [UM0141890:01, AEE788 (NVP-AEE788)] | – |
| 3.326% | CC(C)CC(=O)Nc1n[nH]c2c1CN(C(=O)C1CCN(C)CC1)C2(C)C [UM0141891:01, PHA-793887] | – |
| 38.47% | Cc1ccc(C(=O)Nc2ccc(CN3CCN(C)CC3)c(C(F)(F)F)c2)cc1C#Cc1cnc2cccnn12 [UM0141892:01, Ponatinib (AP24534)] | – |
| 55.75% | Cc1cc([C@@H](C)Nc2ccccc2C(=O)O)c2nc(N3CCOCC3)cc(=O)n2c1 [UM0141893:01, AZD6482] | – |
| -0.9736% | O=C(NCc1ccccc1)c1csc(Nc2ccncn2)n1 [UM0141894:01, Thiazovivin] | – |
| 34.84% | CC(C)(C)Cn1c(N)nc2ccc(-c3[nH]c(C(C)(C)C)nc3-c3ccc(F)cc3)nc21 [UM0141895:01, LY2228820] | – |
| 20.8% | O=C(NC[C@H](O)CO)c1ccncc1Nc1ccc(I)cc1F [UM0141896:01, Pimasertib (AS-703026)] | – |
| 4.915% | Cc1cccc(-c2[nH]c(C(C)(C)C)nc2-c2ccc3nccnc3c2)n1 [UM0141897:01, SB525334] | – |
| 8.844% | CC1=C(C(=O)Nc2cc3cn[nH]c3cc2F)C(c2ccc(C(F)(F)F)cc2)CC(=O)N1 (centres unmarked) [UM0141898:01, GSK429286A] | – |
| 29.71% | Clc1ccc(C2(c3ccc(-c4cn[nH]c4)cc3)CCNCC2)cc1 [UM0141900:01, AT7867] | – |
| 68.15% | CCOc1ccn(-c2ccc(F)cc2)c(=O)c1C(=O)Nc1ccc(Oc2ccnc(N)c2Cl)c(F)c1 [UM0141902:01, BMS-777607] | – |
| 48.65% | O=C(NOCC(O)CO)c1cc(Br)c(F)c(F)c1Nc1ccc(I)cc1F (centres unmarked) [UM0141903:01, PD318088] | – |
| 17.58% | CCOC(=O)c1ccc(C#Cc2ccc3c(c2)C(C)(C)CCS3)nc1 [UM0141904:01, Tazarotene] | – |
| 0.5831% | O=C(NC1CCNCC1)c1n[nH]cc1NC(=O)c1c(Cl)cccc1Cl [UM0141905:01, AT7519] | – |

| SMILES | Inh (PKA) [1] | further results |
| --- | --- | --- |
| Cc1c2oc3c(C)ccc(C(=O)N[C@@H]4C(=O)N[C@H](C(C)C)C(=O)N5CCC[C@H]5C(=O)N(C)CC(=O)N(C)[C@@H](C(C)C)C(=O)O[C@@H]4C)c3nc-2c(C(=O)N[C@@H]2C(=O)N[C@H](C(C)C)C(=O)N3CCC[C@H]3C(=O)N(C)CC(=O)N(C)[C@@H](C(C)C)C(=O)O[C@@H]2C)c(N)c1=O [UM0141835:01, Actinomycin D] (I: T[dV]P[Sar][NMeV] / II: T[dV]P[Sar][NMeV]; ester I:1-I:C, II:1-II:C; linker I:N-II:N via Actinocin(9to1)) | 21.28% | – |
| COc1cc(-n2c(=S)[nH]c3ccccc3c2=O)c(Cl)cc1Cl [UM0141840:01, Mdivi 1] | 54.95% | – |
| O=C1C2CCN(CC2)C1(CO)CO [UM0141841:01, PRIMA-1] | 1.308% | – |
| COCC1(CO)C(=O)C2CCN1CC2 (centres unmarked) [UM0141842:01, PRIMA-1MET] | 2.921% | – |
| BrC1C(Br)C(Br)C(Br)C(Br)C1Br (centres unmarked) [UM0141851:01, 1,2,3,4,5,6-Hexabromocyclohexane] | 6.156% | – |
| Cc1ccc(C(=O)N(CCCN)[C@@H](c2nc3cc(Cl)ccc3c(=O)n2Cc2ccccc2)C(C)C)cc1 [UM0141883:01, Ispinesib (SB-715992)] | 12.18% | – |
| Nc1nc(F)nc2c1ncn2[C@@H]1O[C@H](CO)[C@@H](O)[C@@H]1O [UM0141888:01, Fludarabine] | 1.153% | – |
